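Cells were grown in 96-well plates and exposed to each compound for 48 hours at five concentrations; endpoints were interpolated linearly between bracketing concentrations, or set to the highest concentration if not reached. GI50 = concentration required for 50% inhibition of growth. TGI marks complete inhibition of growth.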

Assay in all cases: NCI tumour cell line growth inhibition, 48 h
Test [1] deals with 786-0 renal.
Test [2] concerns LOX IMVI melanoma.
Test [3] has as its system SN12C renal.
Test [4] deals with ACHN renal.
The subject of test [5] is NCI-H460 lung.
The subject of test [6] is TK-10 renal.
For test [7], the system named is HCT-116 colon.
Test [8] relates to SW-620 colon.

For `COc1ccc(C(=O)c2cc(C)c(OC)c(C)c2)cc1OC(=O)CCl`, the GI50 in test [1] is 0.0763 µM; in test [2] it was less than 0.01 µM; in test [3], less than 0.01 µM; in test [4], less than 0.01 µM; in test [5] it was less than 0.01 µM; in test [6] it was 34.7 µM. The GI50 in test [7] is less than 0.0111 µM; in test [8], less than 0.01 µM. For the same molecule, the TGI in test [1] was more than 100 µM; in test [2], more than 100 µM; in test [3], more than 100 µM; in test [4] it was 77.5 µM; in test [5] it was 18.5 µM; in test [6], more than 100 µM. For the same molecule, the TGI in test [7] and in test [8] was more than 100 µM in each case.

For the molecule `CCCCC(CC)COC(=O)C[N+](C)(C)CCOC(c1ccccc1)c1ccccc1` (stereo not drawn), the GI50 in test [1] was 2.3 µM; in test [2] it was 1.66 µM; in test [3] it was 2.43 µM; in test [4], 15 µM; in test [5], 4.77 µM; in test [6], 4.26 µM. The values for the GI50 in test [7] and in test [8] were 1.8 µM and 1.97 µM, respectively. In addition, the TGI in test [1] stood at 5.69 µM; in test [2] it was 3.02 µM; in test [3], 6 µM; in test [4], 30.5 µM; in test [5], 18.8 µM; in test [6], 17.6 µM. Also, the TGI in test [7] worked out at 3.32 µM; in test [8], 4.3 µM.

In the case of `COc1ccc(C(=O)c2cc(C)c(OC)c(C)c2)c(OC)c1O`, the GI50 was 0.667 µM in test [1]; 0.0381 µM in test [2]; 0.0786 µM in test [3]; 0.0566 µM in test [4]; 0.0713 µM in test [5]; 25 µM in test [6]. For the same molecule, the GI50 in test [7] was 0.103 µM; in test [8], 0.0366 µM. The TGI is more than 100 µM in test [1]; more than 100 µM in test [2]; more than 100 µM in test [3]; more than 100 µM in test [4]; 1.35 µM in test [5]; more than 100 µM in test [6]. For the same molecule, the TGI in test [7] and in test [8] was more than 100 µM in each case.

Regarding `NS(=O)(=O)c1ccc(-c2ccc3c(NC(=O)C4CC4)n[nH]c3c2)cc1`, the GI50 in test [1], in test [2], in test [3], in test [4], in test [5] and in test [6] was more than 25 µM in each case. The GI50 in test [7] and in test [8] was more than 25 µM throughout. Moreover, the TGI in test [1], in test [2], in test [3], in test [4], in test [5] and in test [6] was more than 25 µM each time. The TGI in test [7] and in test [8] was more than 25 µM in each case.

Regarding `COC(=O)Nc1nc2ccc(C3(c4ccc(F)cc4)OCCO3)cc2[nH]1`, the GI50 in test [1] is 0.687 µM; in test [2], 0.732 µM; in test [3], 0.584 µM; in test [4] it was 0.917 µM; in test [5], 0.344 µM; in test [6], 15.7 µM. Moreover, the GI50 in test [7] is 0.409 µM; in test [8], 0.311 µM. The TGI was more than 100 µM in test [1]; more than 100 µM in test [2]; more than 100 µM in test [3]; more than 66.6 µM in test [4]; more than 36.8 µM in test [5]; more than 100 µM in test [6]. In addition, the results for the TGI in test [7] and in test [8] were more than 49.6 µM and more than 100 µM, respectively.

Take `Cc1ccc(N=C/C=C(\Nc2ccc(C)cc2)c2ccc(Cl)cc2)cc1`: the GI50 was 11.1 µM in test [1]; 5.58 µM in test [2]; 11.7 µM in test [3]; 14.5 µM in test [4]; 6.38 µM in test [5]; 12.3 µM in test [6]. For the same molecule, the GI50 in test [7] is 5.54 µM; in test [8], 6.44 µM. Further, the TGI in test [1] is 28.7 µM; in test [2], more than 100 µM; in test [3], 33.3 µM; in test [4] it was more than 100 µM; in test [5], 60.6 µM; in test [6], 42.2 µM. For the same molecule, the TGI is 46.8 µM in test [7] and 52 µM in test [8].

In the case of `C=CCCCCC/C=C\[C@@H](O)C#CC#C/C=C/CO`, the GI50 in test [1] was more than 100 µM; in test [2] it was 17.2 µM; in test [3] it was 57.5 µM; in test [4], more than 100 µM; in test [5], more than 100 µM; in test [6], more than 100 µM. The GI50 in test [7] was 45.7 µM; in test [8] it was 48.2 µM. In addition, the TGI in test [1] is more than 100 µM; in test [2], 32.1 µM; in test [3], more than 100 µM; in test [4] it was more than 100 µM; in test [5] it was more than 100 µM; in test [6], more than 100 µM. For the same molecule, the TGI in test [7] and in test [8] was more than 100 µM in each case.

As to `O=c1cc(NCC(O)CN2CCCC2)n(Cc2ccccc2)c(=O)n1Cc1ccccc1` (stereo not drawn), the GI50 in test [1] is 32.3 µM; in test [2], 18.5 µM; in test [3] it was more than 100 µM; in test [4], more than 100 µM; in test [5] it was 39.7 µM; in test [6] it was more than 100 µM. For the same molecule, the GI50 in test [7] was 13.6 µM; in test [8] it was 41.1 µM. Also, the TGI in test [1] is more than 100 µM; in test [2], 38.7 µM; in test [3] it was more than 100 µM; in test [4] it was more than 100 µM; in test [5], more than 100 µM; in test [6], more than 100 µM. Moreover, the TGI is 33.3 µM in test [7] and more than 100 µM in test [8].

For `CC1=C(/C=C/Cl)CC(Cl)C(C)(Cl)C1` (stereo not drawn), the TGI in test [1], in test [2], in test [3], in test [4], in test [5] and in test [6] was more than 100 µM in each case. Further, the TGI in test [7] and in test [8] was more than 100 µM throughout.

`COCC[C@H]1CCC/C=C/[C@@H]2C[C@H](O)C[C@H]2[C@H](O)/C=C/C(=O)O1`: the GI50 in test [1] is 0.0234 µM; in test [2] it was 0.0434 µM; in test [3] it was 0.274 µM; in test [4], 0.319 µM; in test [5] it was 0.39 µM; in test [6], 0.18 µM. The GI50 in test [7] was 0.149 µM; in test [8], 0.0572 µM. Besides, the TGI in test [1] was 0.054 µM; in test [2], 0.179 µM; in test [3] it was more than 100 µM; in test [4] it was more than 100 µM; in test [5], more than 100 µM; in test [6], 0.63 µM. Besides, the TGI in test [7] was found to be 0.332 µM; in test [8], 0.258 µM.

For the molecule `O=C(Nc1n[nH]c2cc(-c3ccccc3)ccc12)C1CC1`, the GI50 in test [1] is more than 25 µM; in test [2], 16 µM; in test [3], 16.3 µM; in test [4] it was more than 25 µM; in test [5], 7.15 µM; in test [6] it was more than 25 µM. For the same molecule, the values for the GI50 in test [7] and in test [8] were 6.56 µM and 4.77 µM, respectively. The TGI in test [1], in test [2], in test [3], in test [4], in test [5] and in test [6] was more than 25 µM each time. For the same molecule, the TGI in test [7] and in test [8] was more than 25 µM throughout.

Regarding `O=C1c2cccnc2-c2nc(-c3ccc(Cl)cc3)cc3c2c1nc1ccccc13`, the GI50 was 12.8 µM in test [1]; 35.7 µM in test [2]; 24 µM in test [3]; 15.9 µM in test [4]; 37.2 µM in test [5]; 24.6 µM in test [6]. In addition, the GI50 is 28.4 µM in test [7] and 28.6 µM in test [8]. Further, the TGI in test [1] is 29.7 µM; in test [2] it was more than 100 µM; in test [3] it was more than 100 µM; in test [4], 33.7 µM; in test [5], more than 100 µM; in test [6] it was more than 100 µM. Besides, the TGI in test [7] and in test [8] was more than 100 µM each time.

On to `CCc1nc(N)nc(N)c1-c1ccc(NC)c([N+](=O)[O-])c1`, for which the TGI in test [1], in test [2], in test [3], in test [4], in test [5] and in test [6] was more than 100 µM in each case. Besides, the TGI in test [7] and in test [8] was more than 100 µM each time.

As to `N#Cc1cc(-c2cc3ccccc3o2)oc1N`, the GI50 in test [1] was 4.74 µM; in test [2] it was 2.87 µM; in test [3], 3 µM; in test [4] it was 3 µM; in test [5] it was 3.03 µM; in test [6] it was 6.61 µM. Besides, the GI50 in test [7] is 3.65 µM; in test [8], 3.98 µM. The TGI is 22.5 µM in test [1]; 12.5 µM in test [2]; 11.8 µM in test [3]; 11.1 µM in test [4]; 10.6 µM in test [5]; 34.8 µM in test [6]. The TGI in test [7] came out at 12.2 µM; in test [8] it was 14.8 µM.

Source of the values: PubChem BioAssay (NCI).
